Measured values from the supplement of paper PMC13380429.
± gives the standard deviation of the averaged measurements.

Columns and labels:
Settings in all cases: 72 h
Caco-2 [1] = assay: cell viability relative to DMSO; higher = less toxic
Calu-3 [2] = assay: as above
HepG2 [3] = assay: as above
U2OS [4] = assay: as above
Vero E6 [5] = assay: as above
Caco-2 [6] = assay: relative viability EC50 (midpoint between 100% and the lowest measured viability); higher = less toxic
Calu-3 [7] = assay: as above
HepG2 [8] = assay: as above
U2OS [9] = assay: as above
Vero E6 [10] = assay: as above
Caco-2 [11] = assay: drug sensitivity score (DSS) for viability; higher = more toxic; extreme values may be limits of the assay
Calu-3 [12] = assay: as above
HepG2 [13] = assay: as above
U2OS [14] = assay: as above
Vero E6 [15] = assay: as above

Structure (SMILES) | cell viability (Caco-2 [1]; 1 nM) | cell viability (Caco-2 [1]; 10 nM) | cell viability (Caco-2 [1]; 100 nM) | cell viability (Caco-2 [1]; 1000 nM) | cell viability (Caco-2 [1]; 10000 nM) | cell viability (Calu-3 [2]; 1 nM) | cell viability (Calu-3 [2]; 10 nM) | cell viability (Calu-3 [2]; 100 nM) | cell viability (Calu-3 [2]; 1000 nM) | cell viability (Calu-3 [2]; 10000 nM) | cell viability (HepG2 [3]; 1 nM) | cell viability (HepG2 [3]; 10 nM) | cell viability (HepG2 [3]; 100 nM) | cell viability (HepG2 [3]; 1000 nM) | cell viability (HepG2 [3]; 10000 nM) | cell viability (U2OS [4]; 1 nM) | cell viability (U2OS [4]; 10 nM) | cell viability (U2OS [4]; 100 nM) | cell viability (U2OS [4]; 1000 nM) | cell viability (U2OS [4]; 10000 nM) | cell viability (Vero E6 [5]; 1 nM) | cell viability (Vero E6 [5]; 10 nM) | cell viability (Vero E6 [5]; 100 nM) | cell viability (Vero E6 [5]; 1000 nM) | cell viability (Vero E6 [5]; 10000 nM) | relative viability EC50 (Caco-2 [6]) | relative viability EC50 (Calu-3 [7]) | relative viability EC50 (HepG2 [8]) | relative viability EC50 (U2OS [9]) | relative viability EC50 (Vero E6 [10]) | drug sensitivity score (Caco-2 [11]) | drug sensitivity score (Calu-3 [12]) | drug sensitivity score (HepG2 [13]) | drug sensitivity score (U2OS [14]) | drug sensitivity score (Vero E6 [15])
O=C(O)CCc1c(C(=O)O)[nH]c2cc(Cl)cc(Cl)c12 | 92.8% | 104% | 90.9% | 102% | 99.4% | 91.6% | 96.3% | 93.2% | 97.5% | 106% | 102% | 92.5% | 94.2% | 107% | 105% | 96.2% | 103% | 95.9% | 99.7% | 97.5% | 99.9% | 102% | 102% | 94.3% | 102% | > 10 µM | > 10 µM | > 10 µM | > 10 µM | > 10 µM | 0 | 0 | 0 | 0 | 0
O=C(O)Cn1c(C(=O)Nc2nc(-c3ccccc3Cl)cs2)cc2ccccc21 | 103% | 99.9% | 95.1% | 89.5% | 110% | 100% | 92.5% | 99.4% | 103% | 102% | 106% | 99.2% | 101% | 104% | 93.3% | 96% | 101% | 95.6% | 101% | 98.5% | 105% | 106% | 103% | 108% | 97.4% | > 10 µM | > 10 µM | > 10 µM | > 10 µM | > 10 µM | 0 | 0 | 0 | 0 | 0
C#C[C@]1(OC(C)=O)CC[C@H]2[C@@H]3CCC4=CC(=NO)CC[C@@H]4[C@H]3CC[C@@]21CC (mixture of isomers) [norgestimate] | 98.3% | 87.7% | 73.4% | 93% | 92.4% | 98.6% | 104% | 102% | 106% | 104% | 108% | 97.6% | 107% | 91.3% | 111% | 97% | 104% | 94.3% | 99.6% | 96.2% | 99% | 94% | 99.2% | 99.6% | 102% | > 10 µM | > 10 µM | > 10 µM | > 10 µM | > 10 µM | 0 | 0 | 0 | 0 | 0
CC[C@@H](C)c1ccc(NC(=O)Cn2cnc3c2c(=O)n(C)c(=O)n3C)cc1 (racemic) | 98.5% | 90.1% | 89.8% | 97.3% | 92.5% | 99.4% | 100% | 98.6% | 99% | 95.6% | 95.9% | 100% | 96.6% | 100% | 93.4% | 98.6% | 97.1% | 98.3% | 96.9% | 98.6% | 96% | 98.3% | 92.6% | 94% | 106% | > 10 µM | > 10 µM | > 10 µM | > 10 µM | > 10 µM | 0 | 0 | 0 | 0 | 0
CC(=C(CCO)SSCC1CCCO1)N(C=O)Cc1cnc(C)nc1N (stereo in doubt) [fursultiamine] | 112% | 91.6% | 97.6% | 106% | 96% | 98.5% | 101% | 108% | 110% | 114% | 93.3% | 87.5% | 90.2% | 110% | 97.8% | 101% | 102% | 98.7% | 97.8% | 98.2% | 106% | 95.5% | 99.2% | 97.3% | 102% | > 10 µM | > 10 µM | > 10 µM | > 10 µM | > 10 µM | 0 | 0 | 0 | 0 | 0
C[C@H]1NC(=O)NC1=O [5-methylhydantoin-(D)] | 97.5 ± 3.3% | 94.4 ± 0.14% | 104 ± 2.3% | 95.3 ± 5.5% | 101 ± 2.6% | 95.5 ± 5.9% | 99.6 ± 5% | 94.5 ± 3.2% | 102 ± 3% | 101 ± 6.9% | 93 ± 4.9% | 100 ± 0.64% | 93.3 ± 5.9% | 98.1 ± 8.6% | 106 ± 2.8% | 97.85 ± 0.49% | 100 ± 5% | 98.8 ± 5.1% | 98.2 ± 2.3% | 100 ± 2.4% | 97.1 ± 7.1% | 102 ± 4.5% | 96.4 ± 0.71% | 99.4 ± 0.57% | 100 ± 8% | > 10 µM | > 10 µM | > 10 µM | > 10 µM | > 10 µM | 0 | 0 | 0 | 0 | 0
C[C@H](Nc1ncnc2[nH]cnc12)c1cc2ccc(F)cc2nc1-c1ccccn1 [AMG319] | 100 ± 4.2% | 104 ± 6.4% | 98.5 ± 1.3% | 93.4 ± 5.8% | 95 ± 13% | 103 ± 0.64% | 97.2 ± 1.3% | 108 ± 8.1% | 100 ± 13% | 96.5 ± 2.5% | 103 ± 2.3% | 96.5 ± 11% | 115 ± 5% | 97.8 ± 6.2% | 99.3 ± 5.4% | 99% | 101% | 98.3% | 102% | 101% | 98.8 ± 3.9% | 97.8 ± 0.85% | 98.5 ± 1.2% | 92.2 ± 2.3% | 83.7 ± 4.1% | > 10 µM | > 10 µM | > 10 µM | > 10 µM | > 10 µM | 0.2 ± 0.28 | 0 | 0 | 0 | 0.75 ± 0.35
CCN(CC)CCCCC1CCN(CC(=O)N2c3ccccc3C(=O)Nc3cccnc32)CC1 [AQ-RA741] | 101% | 90.9% | 98.2% | 86.4% | 97.1% | 105% | 94.7% | 108% | 109% | 96.4% | 100% | 102% | 102% | 101% | 90.1% | 97.1% | 96.3% | 105% | 98.6% | 104% | 102% | 106% | 96.7% | 97.8% | 95.9% | > 10 µM | > 10 µM | > 10 µM | > 10 µM | > 10 µM | 0 | 0 | 0 | 0 | 0
COc1ccc2cc(C(C)C(=O)Oc3ccc(C(N)=S)cc3)ccc2c1 (stereo not given) [ATB-346] | 90% | 102% | 93.7% | 89.6% | 98.6% | 100% | 102% | 98.8% | 102% | 101% | 98.2% | 88.4% | 97.2% | 98.7% | 97.7% | 99.7% | 100% | 99.1% | 99.9% | 96.9% | 100% | 94.3% | 95.7% | 94.4% | 97.6% | > 10 µM | > 10 µM | > 10 µM | > 10 µM | > 10 µM | 0 | 0 | 0 | 0 | 0
Cc1c(-c2ccnn2C)cc(C(=O)NCc2ccc(S(C)(=O)=O)cn2)c(=O)n1-c1cccc(C(F)(F)F)c1 [AZD9668] | 93.9% | 101% | 106% | 96.9% | 101% | 94.5% | 103% | 99.9% | 92.9% | 97.1% | 101% | 102% | 98% | 108% | 103% | 97% | 93.6% | 102% | 95.7% | 102% | 97.3% | 102% | 89.7% | 92.2% | 107% | > 10 µM | > 10 µM | > 10 µM | > 10 µM | > 10 µM | 0 | 0 | 0 | 0 | 0
COC(=O)C1=C(C)N(C)C(C)=C(C(=O)OC)C1c1ccc(C(F)(F)F)cc1 [BAY-W-9798] | 91.8% | 99.4% | 98.9% | 97.1% | 95.4% | 95.1% | 103% | 93.4% | 98.1% | 100% | 96.7% | 93.3% | 106% | 96.3% | 101% | 96.9% | 102% | 96.4% | 102% | 103% | 93.7% | 92.5% | 94.2% | 96.3% | 107% | > 10 µM | > 10 µM | > 10 µM | > 10 µM | > 10 µM | 0 | 0 | 0 | 0 | 0
N=C(N)SCc1ccc(B(O)O)cc1 [BC-11] | 102% | 101% | 96.1% | 108% | 92.4% | 92.3% | 101% | 105% | 107% | 99.6% | 107% | 99.7% | 99.8% | 88.6% | 92.8% | 102% | 102% | 98.8% | 97.1% | 97.1% | 108% | 96.6% | 97.9% | 101% | 99.8% | > 10 µM | > 10 µM | > 10 µM | > 10 µM | > 10 µM | 0 | 0 | 0.4 | 0 | 0
O[C@H]1[C@H](O)[C@@H](O)CN2CC[C@H](O)[C@H]12 [castanospermine] | 100% | 99% | 106% | 98.2% | 100% | 102% | 96.6% | 96.9% | 103% | 104% | 101% | 99.3% | 102% | 110% | 97.5% | – | – | – | – | – | 97.4% | 99.3% | 91% | 102% | 91.8% | > 10 µM | > 10 µM | > 10 µM | – | > 10 µM | 0 | 0 | 0 | – | 0
CCOc1ccccc1-n1c(C(C)N2CCN(C(=O)COc3ccc(Cl)cc3)CC2)nc2ccccc2c1=O (stereo not given) [erastin] | 103% | 94.8% | 96.9% | 97.1% | 43.4% | 113% | 97.4% | 109% | 81.3% | 13.5% | 96.6% | 102% | 109% | 89.8% | 5.5% | – | – | – | – | – | 96% | 99.4% | 95.8% | 97.2% | 15.5% | 2.76 µM | 1.67 µM | 2.27 µM | – | 2.92 µM | 3.5 | 7.8 | 6.9 | – | 5.1
O=C(Nc1ccc([N+](=O)[O-])cc1Cl)c1cc(Cl)ccc1O [niclosamide] | 101% | 102% | 95.3% | 93.7% | 17.6% | 106% | 98.4% | 92.2% | 91.3% | 86.2% | 104% | 99.4% | 109% | 98% | 9.9% | 101% | 104% | 97.2% | 103% | 68.9% | 101% | 99.7% | 102% | 102% | 20% | 2.54 µM | > 10 µM | 3.01 µM | – | 3.34 µM | 5.6 | 0.6 | 5.3 | 1.2 | 4.2
